Measurements published in patent EP3466419B1, “USE OF TRIMETHOXYBENZYL ACETYLSINAPATE, ADVANTAGEOUSLY IN COMBINATION WITH AT LEAST ONE SUNSCREEN, FOR PROTECTING THE SKIN” (Thorel, Jean-Noël, priority 2017, dated 2019).

Test system: Nrf2
Experiment: Induction of the Nrf2 pathway, luciferase reporter assay in the « ARE Reporter-HepG2 » cell model
Type: cell-based
Conditions: 18 hours of contact, relative to solvent control cells
Description: Le but de l'étude est d'évaluer l'induction de la voie Nrf2 dans le modèle cellulaire « ARE Reporter-HepG2 » (HepG2; BPS BIOSCIENCE) [Lee et al., (2004), Dinkova-Kostova et al., (2002)] par l'actif visé dans l'invention.
En parallèle du test de cytotoxicité, des cellules HepG2 ont été également ensemencées dans des puits de plaques à 96 puits (plaques opaques avec fond transparent) à raison de 40 000 cellules/puits (volume de 100 µL), en milieu M1.
Seuls les 60 puits centraux des plaques ont été utilisés, les puits restants n'ont reçu que du PBS.
Après adhésion des cellules, le milieu de culture M1 a été enlevé. Les cellules ont été traitées (volume final: 50 µL) avec le produit à l'essai, dilué dans le milieu de culture M1 (n=3/concentration à tester, 1 concentration/produit), pendant 18 heures. […]
Les puits « sans cellules » ont servi à la détection de la luminescence liée au bruit de fond du milieu. Les puits « cellules témoins » ont servi à la détection de la luminescence intrinsèque du système d'essais (sans activation). […]
A la fin de la période d'incubation (18 heures à 37°C, 5 % de CO2), les cellules ont été lysées par ajout de 100 µL du réactif « One-step luciferase assay system ». La luminescence émise par la luciférase néo-synthétisée a été évaluée avec un luminomètre Optima. […]

| SMILES | activity at 3 µM (Homo sapiens, HepG2, 3 µM, read-out: luminescence émise par les cellules HepG2 traitées, en comparaison au témoin solvant (activation de Nrf2)) | activity at 0.00125 % (dose 0,00125 %, read-out: taux d'activation de Nrf2) |
| --- | --- | --- |
| C[S+]([O-])CCCCN=C=S (centres unmarked) [sulforaphane] | 438% | – |
| COc1cc(COC(=O)/C=C/c2cc(OC)c(OC(C)=O)c(OC)c2)cc(OC)c1OC [trimethoxybenzyl acetylsinapate, 3-[4-(acetyloxy)-3,5-dimethoxyphenyl] -(3,4,5-trimethoxyphenyl)methyl ester-(2E)-Propenoic acid] | – | 164% |
